Assay results from US10154974B1, “Use of abscisic acid for the prevention and treatment of malaria” (The Regents of the University of California, priority 2015, dated 2018).

Key:
Anopheles stephensi = assay: Mosquito egg production and viability; format: in vivo; details: single ABA-supplemented uninfected bloodmeal
Experimental: The egg laying rate and hatch rate were analyzed using Fisher's exact test. […] Each dot represents the clutch size of a single mosquito. Clutch size was analyzed by unpaired t-test.

[1] = Daily monitoring of water consumption, body weight and condition of mice; format: in vivo; details: infected CD1 mice
Experimental: 6-8 week old female CD1 mice (Jackson) were housed four to a cage and provided with unsupplemented water or water supplemented with 2.56 mM (±)-abscisic acid (CAS Registry Number 14375-45-2) obtained from Sigma-Aldrich (Catalog No. A1049). Water and supplemented water were changed daily. On day 3 of supplementation, mice were injected intraperitoneally with 5×10^6 P. yoelii 17XNL-infected RBCs. Mouse weight, water consumption per cage, and parasitemia were monitored daily. Parasitemia was determined from thin blood films stained with Giemsa. Parasitemia was measured as the percentage of infected RBCs divided by total RBCs, while gametocytemia was measured as the proportion of gametocyte-containing RBCs of total infected RBCs. Four mice were used per group in replicated studies. Daily parasitemias and gametocytemias were analyzed by unpaired t-test.

P. falciparum NF54 = assay: P. falciparum asexual growth assay; format: cell-based; details: 10 nM or 100 nM ABA, 48 and 96 hours, relative to untreated control
Experimental: P. falciparum NF54 cultures were synchronized and aliquots plated in complete RPMI 1640 with HEPES, hypoxanthine, and 10% heat inactivated human serum. Parasites were treated with 10 nM ABA, 100 nM ABA, or a diluent control and incubated at 37° C. for 48 or 96 hours before culture media was replaced with 10% formalin in RPMI 1640. Red blood cells were stained with 10 ug/mL propidium iodide (Sigma-Aldrich) in PBS at room temperature for 1 hour and infected cells counted with FACS Calibur flow cytometer (BD Biosciences). Four replicates were carried out, each using a separate parasite culture passage. Relative changes in growth were normalized to controls set at 1 and analyzed by one-sample t-test.

[2] = Whole liver and spleen weights; format: in vivo, mice; details: day 9 post-infection with P. yoelii 17XNL
Experimental: FIG. 20A-C illustrate that ABA supplemented mice have reduced hepatosplenomegaly and evidence of improved liver function. Shown are weights of whole liver (FIG. 20A) and spleen (FIG. 20B) from control and ABA-supplemented mice on day 9 post-infection with P. yoelii 17XNL. Also shown are blood urea nitrogen levels (FIG. 20C) in plasma of uninfected and P. yoelii-infected, control and ABA-supplemented mice on day 11 post-infection. Data were analyzed by unpaired t-test.

[3] = Small animal chemistry panel of plasma; format: in vivo, mice
Experimental: FIG. 19A-C through FIG. 28A-B and Tables 6-1 through 6-4 support the use of ABA for treating Plasmodium-infected mammalian subjects. In the following tables, 4-5 mice were used per treatment, and data were analyzed by unpaired t-test. […] Abbreviations for Tables 6-3 and 6-4 are as follows: WBC=white blood cells, RBCs=red blood cells, MCV=mean corpuscular volume, MCH=mean corpuscular hemoglobin, MCHC=mean corpuscular hemoglobin concentration, RDW=red blood cell distribution width, MPV=mean platelet volume.

P. falciparum [4] = assay: Pfs16 and Pfs25 expression in parasite-fed mosquito midguts (parasite death); format: in vivo; details: between 18 and 24 hours post-bloodmeal
Experimental: Expression levels are shown of P. falciparum genes Pfs16 and Pfs25 in ABA-supplemented parasite-fed mosquito midguts. Data are normalized to mosquito and parasite ribosomal genes s7 and A18s. Each dot represents one replicate of 10 pooled midguts. Data are shown as fold change relative to control and were analyzed by one sample t-test. * p<0.05.

P. falciparum [5] = assay: P. falciparum infection of A. stephensi fed a supplemented infected bloodmeal; format: in vivo; details: for reduction of infection prevalence in A. stephensi: relative to control
Experimental: For P. falciparum infections A. stephensi were fed on a 1:1 ratio of P. falciparum-infected RBCs containing a treatment or diluent control and provided in a Hemotek Insect Feeding System (Discovery Workshops). ABA was eluted in 100% ethanol and stored at −20 C for up to 6 months. ABA stock was diluted with PBS and added into blood immediately before feeding for final concentrations of 10 nM and 100 nM. For L-NAME feeds mosquitoes were maintained on sugar cubes and water pads containing 1 mg/mL L-NAME for 72 hours before the feed and throughout the course of infection. Infection prevalence data were analyzed by Fisher's Exact Test. Oocyst intensities were analyzed by Mann-Whitney test.

liver = assay: Liver histology scoring; format: in vivo, mice
Experimental: Mice were euthanized on day 7 post-infection. Blood was collected by heart puncture, spun at 8,000 rpm for 8 minutes and the plasma collected for ABA quantification. Livers and spleens were collected, retained in 10% formalin for 24 hours and then stored in 70% ethanol before sectioning and staining with hematoxylin and eosin. Liver sections were blindly scored on a scale from 0 to 3 for pigment levels, Kupffer cell density, portal tract inflammation, hemozoin deposition, extramedullary hematopoiesis, sinusoidal leukocyte density, sinusoidal adherence of leukocytes, and presence of microabscesses. Spleen sections were blindly scored on a scale from 0 to 3 for hyperplasia, extramedullary hematopoiesis, pigment, and levels of histiocytes and neutrophils. Pathology scores of control and treated mice were analyzed by unpaired t-test.

P. yoelii 17XNL = assay: P. yoelii transmission from ABA-supplemented mice to A. stephensi (oocyst counts); format: in vivo
Experimental: Anopheles stephensi Liston (Indian wild-type strain) were reared and maintained at 27° C. and 75% humidity. For all feeding experiments, 3-5-day-old female mosquitoes were maintained on water pads for 24 hours and then allowed to bloodfeed for 30 minutes on control or ABA-supplemented P. yoelii 17XNL-infected mice. Cohorts of 50 mosquitoes were allowed to feed on each mouse at 5 days post-infection. Immediately after feeding non-engorged mosquitoes were removed. Ten days post-feeding, midguts were dissected, stained with 0.5% mercurochrome, and oocysts counted by microscopy.

[6] = uninfected and infected mice, day 11 post-infection
[7] = infected mice, day 7 post-infection

## CC1=CC(=O)CC(C)(C)[C@@]1(O)/C=C/C(C)=C\C(=O)O (racemic) [ABA, (2Z,4E)-5-[(1S)-1-hydroxy-2,6,6-trimethyl-4-oxocyclohex-2-en-1-yl]-3-methylpenta-2,4-dienoic acid]
Anopheles stephensi
  egg production or viability: does not alter
[1]; day 7, compared to controls
  lethargy at necropsy: less lethargic
[1]; over the course of infection
  daily weight change: not different
P. falciparum NF54
  asexual growth: no effect
[2]
  hepatosplenomegaly (weights of whole liver and spleen): reduced
[3]; P. yoelii-infected mice
  alanine transaminase, Mean: 30.23 U/L
  albumin, Mean: 2.25 g/dL
  aspartate transaminase, Mean: 194.7 U/L
  creatine, Mean: 0.18 mg/dL
  phosphorus, Mean: 8.43 mg/dL
  total bilirubin, Mean: 0.26 mg/dL
  total protein, Mean: 4.12 g/dL
[3]; day 11 post-infection
  liver function (blood urea nitrogen levels in plasma): improved
[3]; uninfected and P. yoelii-infected mice
  plasma indicators of organ health: no effect
[3]; [6]
  glucose levels in mouse plasma: does not alter
  insulin levels in mouse plasma: does not alter
[3]; uninfected mice
  alanine transaminase, Mean: 176.8 U/L
  albumin, Mean: 3.23 g/dL
  aspartate transaminase, Mean: 1437 U/L
  blood urea nitrogen, Mean: 28.76 mg/dL
  creatine, Mean: 0.21 mg/dL
  phosphorus, Mean: 10.07 mg/dL
  total bilirubin, Mean: 0.06 mg/dL
  total protein, Mean: 4.67 g/dL
P. falciparum [4]
  parasite death in mosquito midgut (Pfs16 and Pfs25 expression): increased parasite death
P. falciparum [5]; 10 nM ABA in bloodmeal
  reduction of infection prevalence in A. stephensi: 30%
P. falciparum [5]; 10 nM ABA, among infected mosquitoes (controls 2.1)
  mean oocysts per midgut: 1.6
P. falciparum [5]; 100 nM ABA in bloodmeal
  reduction of infection prevalence in A. stephensi: 36%
liver; absence of infection
  number of sinusoidal leukocytes in the liver: decreased
liver; [7]
  adhered leukocytes in the liver: fewer
  microabscesses in the liver: fewer
liver; liver, P. yoelii-infected mice
  hemozoin deposition, pigment, portal tract inflammation, extramedullary hematopoeisis, Kupffer cell density: not altered
P. yoelii 17XNL; A. stephensi fed on ABA-supplemented mice on day 5
  mean oocysts per midgut: 12
P. yoelii 17XNL; A. stephensi fed on ABA-supplemented mice on day 5, dissected ten days later
  infection prevalence of mosquitoes: 60.9%
P. yoelii 17XNL; vs mosquitoes fed on control mice
  reduction in prevalence: 31.4%
